Measured values taken from ChEMBL document CHEMBL1201862, “PubChem BioAssay data set” (2004).
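1) Cells in 96-well plates. 2) Compound, 48 h, 5 concentrations. 3) Linear interpolation between surrounding doses. 4) Unreached endpoint = highest concentration. The concentration for 50% growth inhibition is given as GI50.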 The source made the active and inactive calls. Rule as the data show it: active = GI50 up to about 1.1 µM and inactive = higher.

Assays:
Assay in all cases: NCI tumour cell line growth inhibition, 48 h
A549 = system: A549
BT-549 = system: BT-549
CAKI-1 = system: CAKI-1
HL-60 = system: HL-60
HOP-92 = system: HOP-92
K562 = system: K562
KM12 = system: KM12
LOX IMVI = system: LOX IMVI
MDA-MB-435 = system: MDA-MB-435
MOLT-4 = system: MOLT-4
NCI-H226 = system: NCI-H226
OVCAR-3 = system: OVCAR-3
RPMI-8226 = system: RPMI-8226
SF-539 = system: SF-539
SK-MEL-5 = system: SK-MEL-5
SK-OV-3 = system: SK-OV-3
SR = system: SR
TK-10 = system: TK-10
U-251 = system: U-251
UO-31 = system: UO-31

Measured: GI50

COc1cc2ccc(=O)oc2cc1O [SCOPOLETIN]
inactive: A549 40.1 µM | BT-549 > 100 µM | CAKI-1 119 µM | HL-60 34.8 µM | HOP-92 206 µM | K562 152 µM | KM12 36.1 µM | LOX IMVI 61.9 µM | MDA-MB-435 > 100 µM | MOLT-4 28.8 µM | NCI-H226 86.3 µM | OVCAR-3 69.8 µM | RPMI-8226 46.1 µM | SF-539 53.3 µM | SK-MEL-5 78 µM | SK-OV-3 94.2 µM | SR > 100 µM | TK-10 > 100 µM | U-251 24.8 µM | UO-31 38 µM
